Data on one compound can be found in patent US8367830B2, “Methods for the identification of phosphatidylinositol kinase interacting molecules and for the purification of phosphatidylinositol kinase proteins” (Cellzome AG, priority 2009, dated 2013).

Test in all cases: Kinobeads competition binding, immobilized CZC31207, Jurkat/Ramos lysate mix
Settings in all cases: 10 μM free compound; mix of Jurkat and Ramos cell lysates

One experiment concerns the target T1, BIKE (Homo sapiens, UniProt Q9NSY1).
T1 construct: endogenous in cells; host or cells: mix of Jurkat and Ramos cell lysates
Here is the method:
(§1) To the first aliquot of cell lysate 10 μM of the free compound CZC31207 was added and allowed to bind to proteins in the lysate. Then the affinity matrix with the immobilized compound was added to capture proteins that were not interacting with the previously added free compound. Beads were separated from the lysate and bead bound proteins were eluted in SDS sample buffer and subsequently separated by SDS-Polyacrylamide gel electrophoresis (FIG. 5). Suitable gel bands were cut out and subjected to in-gel proteolytic digestion with trypsin. The second lysate aliquot was processed identically, however no free compound was added (DMSO solvent control). Peptides originating from samples 1 and 2 were labeled with iTRAQ reagents (iTRAQ 114 and iTRAQ 116) and the combined samples were analyzed with a nano-flow liquid chromatography system coupled online to a tandem mass spectrometer (LC-MS/MS) experiment followed by iTRAQ reporter ion quantification in the MS/MS spectra as described in Example 2.
(§2) Jurkat cells (ATCC number T1B-152) and Ramos cells (ATCC number CRL-1596) were either obtained from an external supplier (CIL SA, Mons, Belgium) or grown in one litre Spinner flasks (Integra Biosciences, #182101) in suspension in RPMI 1640 medium (Invitrogen, #21875-034) supplemented with 10% Fetal Bovine Serum (Invitrogen, #10270-106) at a density between 0.2×10^6 and 1.0×10^6 cells/ml. Cells were harvested by centrifugation, washed once with 1×PBS buffer (Invitrogen, #14190-094) and cell pellets were frozen in liquid nitrogen and subsequently stored at −80° C.
(§3) The identified kinases are shown in Table 5 including the percent competition values for the sample to which 10 μM free compound had been added. In total of 20 different kinases were identified and competed by different degrees.

In another experiment the target is T2, CDC2 (Homo sapiens, UniProt P06493).
T2 construct: endogenous in cells; host or cells: mixed lysate of Jurkat and Ramos cells
T2 sequence (P06493 whole entry): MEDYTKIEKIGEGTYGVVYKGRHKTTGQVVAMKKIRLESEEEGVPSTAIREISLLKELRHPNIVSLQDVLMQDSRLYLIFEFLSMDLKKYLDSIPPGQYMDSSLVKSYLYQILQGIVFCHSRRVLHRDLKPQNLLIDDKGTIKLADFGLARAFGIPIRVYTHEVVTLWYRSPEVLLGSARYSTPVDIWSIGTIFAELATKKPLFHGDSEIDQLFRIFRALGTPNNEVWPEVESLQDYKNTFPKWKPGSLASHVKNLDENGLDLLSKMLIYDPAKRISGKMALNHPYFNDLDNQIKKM
The procedure:
as §1, §2, §3

The target in another experiment is T3, CDK6 (Homo sapiens, UniProt Q00534).
T3 construct: endogenous in cells; host or cells: mixed lysate of Jurkat and Ramos cells
T3 sequence (Q00534 whole entry): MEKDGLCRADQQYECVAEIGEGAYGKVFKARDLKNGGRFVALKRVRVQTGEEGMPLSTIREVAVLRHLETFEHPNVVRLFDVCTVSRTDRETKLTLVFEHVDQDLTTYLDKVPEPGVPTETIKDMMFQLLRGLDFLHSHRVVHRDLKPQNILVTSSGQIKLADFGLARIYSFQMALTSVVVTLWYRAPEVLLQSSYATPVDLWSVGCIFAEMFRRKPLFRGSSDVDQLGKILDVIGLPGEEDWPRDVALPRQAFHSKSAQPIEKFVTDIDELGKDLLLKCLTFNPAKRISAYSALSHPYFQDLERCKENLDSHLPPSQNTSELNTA
Here is the method:
as §1, §2, §3

In another experiment the target is T4, CaMK2d (Homo sapiens, UniProt Q13557).
T4 construct: endogenous in cells; host or cells: mix of Jurkat and Ramos cell lysates
T4 sequence (Q13557 whole entry): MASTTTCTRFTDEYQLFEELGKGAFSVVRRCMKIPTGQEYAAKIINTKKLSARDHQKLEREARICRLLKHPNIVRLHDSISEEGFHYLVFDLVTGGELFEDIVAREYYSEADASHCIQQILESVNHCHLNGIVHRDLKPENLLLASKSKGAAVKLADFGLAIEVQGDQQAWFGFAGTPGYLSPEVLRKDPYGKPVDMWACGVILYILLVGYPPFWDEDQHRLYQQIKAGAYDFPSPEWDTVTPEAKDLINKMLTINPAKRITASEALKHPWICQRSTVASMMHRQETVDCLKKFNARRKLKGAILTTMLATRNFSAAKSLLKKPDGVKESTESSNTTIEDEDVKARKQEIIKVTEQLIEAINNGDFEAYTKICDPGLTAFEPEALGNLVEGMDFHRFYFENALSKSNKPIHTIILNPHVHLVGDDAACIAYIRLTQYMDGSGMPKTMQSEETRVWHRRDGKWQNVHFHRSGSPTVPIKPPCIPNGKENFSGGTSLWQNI
The procedure:
as §1, §2, §3

Another experiment has as its target T5, MST1 (Homo sapiens, UniProt Q13043).
T5 construct: endogenous in cells; host or cells: mixed lysate of Jurkat and Ramos cells
The procedure:
as §1, §2, §3

Another experiment concerns the target T6, PIK4C2B (Homo sapiens, UniProt Q8TCG2).
T6 construct: endogenous in cells; host or cells: mixed lysate of Jurkat and Ramos cells
Here is the method: as §1, §2, §3

Another experiment deals with T7, PIP5K2A (Homo sapiens, UniProt P48426).
T7 construct: endogenous in cells
T7 sequence (P48426 whole entry): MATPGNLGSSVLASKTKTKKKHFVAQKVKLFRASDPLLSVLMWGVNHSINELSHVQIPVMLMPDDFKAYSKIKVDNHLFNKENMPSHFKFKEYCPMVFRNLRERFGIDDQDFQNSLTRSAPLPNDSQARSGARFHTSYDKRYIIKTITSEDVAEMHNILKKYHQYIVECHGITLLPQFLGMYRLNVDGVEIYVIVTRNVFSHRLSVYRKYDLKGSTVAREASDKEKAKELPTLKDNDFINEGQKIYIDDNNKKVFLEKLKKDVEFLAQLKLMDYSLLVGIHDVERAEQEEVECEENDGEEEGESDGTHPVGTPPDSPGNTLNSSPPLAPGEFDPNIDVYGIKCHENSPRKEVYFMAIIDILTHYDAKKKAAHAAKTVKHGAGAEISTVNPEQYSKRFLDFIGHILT
The procedure:
as §1, §2, §3

In a further experiment the target is T8, PKD2 (Homo sapiens, UniProt Q9BZL6).
T8 construct: endogenous in cells; host or cells: mixed lysate of Jurkat and Ramos cells
T8 sequence (Q9BZL6 whole entry): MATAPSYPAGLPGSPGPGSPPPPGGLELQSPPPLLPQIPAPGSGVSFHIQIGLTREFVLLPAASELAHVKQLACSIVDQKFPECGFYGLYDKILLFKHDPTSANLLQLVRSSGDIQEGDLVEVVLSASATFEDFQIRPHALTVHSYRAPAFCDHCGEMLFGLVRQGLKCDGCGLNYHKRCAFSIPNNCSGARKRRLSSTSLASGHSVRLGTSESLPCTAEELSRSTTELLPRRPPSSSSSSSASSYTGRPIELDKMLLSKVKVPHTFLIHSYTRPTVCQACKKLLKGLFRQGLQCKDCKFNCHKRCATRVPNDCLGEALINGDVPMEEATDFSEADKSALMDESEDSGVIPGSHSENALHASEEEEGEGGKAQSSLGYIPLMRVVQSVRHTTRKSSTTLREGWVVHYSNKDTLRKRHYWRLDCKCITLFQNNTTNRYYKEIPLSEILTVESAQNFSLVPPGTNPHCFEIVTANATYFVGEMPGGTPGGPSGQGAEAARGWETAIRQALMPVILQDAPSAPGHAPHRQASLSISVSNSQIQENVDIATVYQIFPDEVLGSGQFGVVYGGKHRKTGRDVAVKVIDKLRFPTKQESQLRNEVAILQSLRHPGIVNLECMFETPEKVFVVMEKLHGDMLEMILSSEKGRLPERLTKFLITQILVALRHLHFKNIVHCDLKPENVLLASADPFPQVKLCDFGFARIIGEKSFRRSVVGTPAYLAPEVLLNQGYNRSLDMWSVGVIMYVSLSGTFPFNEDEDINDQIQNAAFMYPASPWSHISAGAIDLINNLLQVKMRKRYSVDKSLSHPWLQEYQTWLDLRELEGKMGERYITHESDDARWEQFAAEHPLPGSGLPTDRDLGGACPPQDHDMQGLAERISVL
Here is the method: as §1, §2, §3

T1 sequence (Q9NSY1 whole entry): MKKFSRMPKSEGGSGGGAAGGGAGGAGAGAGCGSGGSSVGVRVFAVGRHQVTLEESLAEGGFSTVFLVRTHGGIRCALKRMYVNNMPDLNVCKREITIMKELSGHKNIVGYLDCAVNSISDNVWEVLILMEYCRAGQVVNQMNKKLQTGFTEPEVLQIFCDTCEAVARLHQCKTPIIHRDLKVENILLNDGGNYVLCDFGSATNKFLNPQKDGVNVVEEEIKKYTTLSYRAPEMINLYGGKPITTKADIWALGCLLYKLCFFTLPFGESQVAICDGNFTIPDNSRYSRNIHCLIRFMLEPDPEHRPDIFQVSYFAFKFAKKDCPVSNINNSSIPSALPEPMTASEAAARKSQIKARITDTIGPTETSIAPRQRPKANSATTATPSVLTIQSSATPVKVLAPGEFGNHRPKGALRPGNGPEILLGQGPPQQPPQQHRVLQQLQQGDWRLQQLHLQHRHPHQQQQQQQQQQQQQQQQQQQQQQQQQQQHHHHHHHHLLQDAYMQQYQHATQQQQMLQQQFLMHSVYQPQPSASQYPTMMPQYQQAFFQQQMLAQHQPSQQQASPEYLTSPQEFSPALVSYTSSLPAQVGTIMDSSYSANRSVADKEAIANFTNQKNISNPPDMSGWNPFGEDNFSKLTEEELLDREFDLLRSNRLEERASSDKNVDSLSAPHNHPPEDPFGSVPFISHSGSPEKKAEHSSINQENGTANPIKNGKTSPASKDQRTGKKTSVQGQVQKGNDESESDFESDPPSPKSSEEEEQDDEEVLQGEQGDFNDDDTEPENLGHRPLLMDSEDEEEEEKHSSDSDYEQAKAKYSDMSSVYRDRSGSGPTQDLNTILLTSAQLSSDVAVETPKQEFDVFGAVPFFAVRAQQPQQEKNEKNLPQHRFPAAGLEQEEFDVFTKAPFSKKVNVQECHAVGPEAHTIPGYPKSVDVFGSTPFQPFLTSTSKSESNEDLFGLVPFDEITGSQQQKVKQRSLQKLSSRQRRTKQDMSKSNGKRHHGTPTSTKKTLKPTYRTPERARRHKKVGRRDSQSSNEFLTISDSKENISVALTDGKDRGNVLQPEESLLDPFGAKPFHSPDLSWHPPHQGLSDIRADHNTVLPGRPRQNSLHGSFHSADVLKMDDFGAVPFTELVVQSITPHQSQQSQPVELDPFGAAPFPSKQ
T6 sequence (Q8TCG2 whole entry): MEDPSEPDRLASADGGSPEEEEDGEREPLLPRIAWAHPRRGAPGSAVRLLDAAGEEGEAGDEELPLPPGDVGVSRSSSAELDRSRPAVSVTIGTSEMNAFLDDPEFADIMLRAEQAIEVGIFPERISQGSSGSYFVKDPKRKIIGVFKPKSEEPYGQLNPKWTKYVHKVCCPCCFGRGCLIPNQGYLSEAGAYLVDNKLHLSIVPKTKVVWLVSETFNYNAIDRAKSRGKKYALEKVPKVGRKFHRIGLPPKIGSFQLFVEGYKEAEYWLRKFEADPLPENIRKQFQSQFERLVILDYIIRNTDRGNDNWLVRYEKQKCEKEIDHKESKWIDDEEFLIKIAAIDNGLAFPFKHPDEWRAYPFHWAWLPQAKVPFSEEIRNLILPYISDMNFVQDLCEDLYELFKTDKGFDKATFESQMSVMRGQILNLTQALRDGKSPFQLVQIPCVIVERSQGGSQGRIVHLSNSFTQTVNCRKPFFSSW
T5 sequence (Q13043 whole entry): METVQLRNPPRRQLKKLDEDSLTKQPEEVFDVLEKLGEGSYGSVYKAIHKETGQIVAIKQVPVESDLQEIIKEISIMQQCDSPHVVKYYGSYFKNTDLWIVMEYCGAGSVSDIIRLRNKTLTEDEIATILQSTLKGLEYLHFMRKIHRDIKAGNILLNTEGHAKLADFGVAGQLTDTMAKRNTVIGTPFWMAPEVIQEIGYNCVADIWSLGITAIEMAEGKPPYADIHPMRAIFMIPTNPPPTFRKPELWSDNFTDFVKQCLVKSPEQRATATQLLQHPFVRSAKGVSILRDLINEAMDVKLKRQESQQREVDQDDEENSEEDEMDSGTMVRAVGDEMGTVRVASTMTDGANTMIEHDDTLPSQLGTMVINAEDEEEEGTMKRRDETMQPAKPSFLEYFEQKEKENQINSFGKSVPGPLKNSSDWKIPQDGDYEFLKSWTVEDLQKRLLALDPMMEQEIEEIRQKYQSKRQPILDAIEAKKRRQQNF

With `CC(C)NS(=O)(=O)c1cncc(-c2ccc3nc(NC(=O)NCCN)nn3c2)c1` [CZC31207, 5-(2-(3-(2-aminoethyl)ureido)-[1,2,4]triazolo[1,5-a]pyridin-6-yl)-N-isopropylpyridine-3-sulfonamide], the “Competition % BIKE” value at BIKE is on record as 26.1%. Moreover, the “Competition % CDC2” value at CDC2 was found to be 34.1%. For the same compound, on CDK6, the “Competition % CDK6” value is −1.6%. Also, the “Competition % CaMK2d” value on CaMK2d is −1.3%. Moreover, the “Competition % MST1” value on MST1 stood at 24.5%. The “Competition % PIK4C2B” value on PIK4C2B was 20.3%. For the same compound, the “Competition % PIP5K2A” value on PIP5K2A was found to be 68.5%. Further, the “Competition % PKD2” value on PKD2 came to 37.9%.
